# Experimental data taken from PMC11603412, “Anti-hepatocellular carcinoma activities of novel hydrazone derivatives via downregulation of interleukin-6” (RSC Advances, 2024).
# pIC50: −log10 of the molar value. Entries after “also recorded” stand apart in the source; their conditions may differ.
# Key:
# [1] = test system: Liver mesenchymal stem cells; assay: MTT cytotoxicity assay, liver mesenchymal stem cells (normal cell line); type: cell-based; conditions: 24 h
# Procedure: (§1) The HepG2 cell line was obtained from ATCC (Rockville, MD). Liver mesenchymal stem cells were harvested from liver biopsy according to previously published protocols.[34] Cells were grown in DMEM media with 10% fetal bovine serum (FBS), 100 U per mL penicillin, and […] streptomycin at 37 °C, 5% CO2. The MTT assay kit, which relies on succinate dehydrogenase in living cells' mitochondria to convert the 3-(4,5-dimethylthiazol-2-yl)-2,5-diphenyltetrazolium bromide (MTT) dye to violet formazan crystals, was used to calculate the vitality of individual cells. 6000 cells per well were seeded in the 96-well plate containing, which were then incubated for 24 h. Different concentrations of drug were dissolved in DMEM and then added to the wells to replace the culture medium. The medium was discarded after incubation for 24 h under the same conditions, and 100 μL of MTT (2 mg mL^−1) were added. After 3 h of incubation at 37 °C, the generated formazan crystals generated were dissolved in 50 μL of DMSO. The optical density was then measured using a Stat Fax ELISA plate reader (Romer Labs, Getzersdorf, Austria) at 570 nm with a reference wavelength of 630 nm after incubating the plate at 37 °C for 15 min. As a positive control, the tyrosine kinase inhibitor sorafenib (Bayer, Germany) was employed. DMSO was used as a solvent and its final concentration was less than 0.2%. SI and IC50 were calculated. Triplicates of each in vitro test were performed.[33]
# [2] = test system: HepG2 cell line; assay: MTT cytotoxicity assay, HepG2; type: cell-based, human; conditions: for pIC50: Homo sapiens, HepG2, 24 h; for cytotoxic action against HepG2: MTT assay, in words
# Procedure: as §1
# [3] = test system: HepG2 cells; assay: Active caspase 3 apoptosis flow cytometry; type: cell-based, human; conditions: for percentage of apoptotic cells compared to the control group: HepG2, active caspase 3, in words; for percentage of apoptotic cells: HepG2, active caspase 3, text value
# Procedure: (§2) Cells were harvested, aliquoted up to 1 × 10^6 cells/100 μL in FACS tubes, washed twice with 2 mL of PBS, centrifuged at 300 × g for five minutes, and the buffer was decanted. Reconstituted cells in 100 μL of staining buffer for flow cytometry. HepG2 cells were stained with propidium iodide according to the technique offered via the kit and subsequently performed on the cytometer. The distribution of the cell cycles was estimated and analyzed using a FACScan TM device (BD, Franklin Lakes, NJ). Furthermore, the caspase-3 apoptotic marker levels were investigated by flow cytometry. During the flow cytometry assay, we investigated a population of HepG2 cells to obtain enough cells for statistically significant detection.
# FITC active caspase-3 apoptosis kit (BD Biosciences, Franklin Lakes, NJ, USA) was used for detection of active caspase 3 followed by flow cytometry analysis according to the instructions of the kit manufacturer.
# [4] = test system: HepG2 cells; assay: Wound healing (cell migration) assay; type: cell-based, human; conditions: for cell migration of HepG2 cells: 24 h, versus untreated control; for antimigration effect compared to sorafenib: HepG2, 24 h, quantified relative migration
# Procedure: The wound healing assay was used to investigate the anti-cell migration/antiproliferation effects of synthesized hydrazone derivatives on the HepG2 cell line. In DMEM medium supplemented with 10% fetal bovine serum (FBS), 100 U per mL penicillin, and […] streptomycin, cells were cultured at 37 °C and 5% CO2. After reaching 80% density, the monolayer cells were scratched using a sterile tip and then washed with phosphate buffered saline, pH 7.4. Different hydrazone derivatives were applied to cells, which were then incubated for 24 h at 37 °C and 5% CO2. Finally, an Olympus microscope (Olympus Europa, Hamburg, Germany) was used to take pictures of the wound areas at 0 and 24 h. The relative cell migration was calculated using the following equation:Relative migration = (width0h − width24h)/width0h
# [5] = test system: IL-6; assay: IL-6 gene expression (RT-PCR); type: cell-based; conditions: normalised to β-actin, versus control group
# Procedure: After two rounds of PBS washing, total RNA was extracted using the TRIzol Reagent, and cDNA synthesis was performed using the high-capacity cDNA reverse transcription kit in accordance with the manufacturer's instructions. The qPCR reaction mixture contained so-fast EvaGreen supermix (10 μL), cDNA (2 μL), invitrogen RT-PCR grade water (6 μL), and the primer pair (500 nM; forward primer 5′-CAAATTCGGTACATCCTC-3′, reverse primer 5′-CTGGCTTGTTCCTCACTA-3′). The amplification started with heating 10 min at 95 °C, followed by 40 cycles of 15 s at 95 °C, 20 s at 55 °C and 30 s at 72 °C. The amplification data was then analyzed as previously described previously with normalization to β-actin.[35]
# [6] = test system: Cytochrome C; assay: Cytochrome C sandwich ELISA; type: cell-based; conditions: versus control group
# Procedure: Cytochrome C was quantified using a sandwich ELISA kit (Abcam, Cambridge, UK) according to the manufacturer's procedures. After the addition of the TMB substrate and the development of the color, the optical density was measured using a Stat fax microplate reader, USA, at 450 nm.
# [7] = test system: HepG2 cells; assay: Propidium iodide cell cycle flow cytometry; type: cell-based, human
# Procedure: as §2
Structure (SMILES),pIC50 [1],pIC50 [2],cytotoxic action against HepG2 [2],percentage of apoptotic cells compared to the control group [3],percentage of apoptotic cells [3] [%],cell migration of HepG2 cells [4],IL-6 mRNA expression [5],cytochrome C concentration [6],cells in G2/M phase [7] [%],cells in S-phase [7] [%],cells in the G0/G1 phase [7] [%],antimigration effect compared to sorafenib [4]
"CNC(=O)c1cc(Oc2ccc(NC(=O)Nc3ccc(Cl)c(C(F)(F)F)c3)cc2)ccn1 [Sorafenib, reference compound]",4.00,4.59,excellent cytotoxic action,increased significantly,75,substantially reduced,significant (P < 0.001) decrease,significant increase,10.68,4.17,74.93,–
NC1=CC(=O)NNC1(C1CC1)C1CC1 [Compound 18],4.00,4.05,excellent cytotoxic action,increased significantly,–,substantially reduced,–,–,–,–,–,–
"NN=C(C1CC1)C1CC1 [Compound 2, dicyclopropylmethylene hydrazone]",< 4.00,4.02,excellent cytotoxic action,increased significantly,–,substantially reduced,–,–,–,–,–,–
O=C1C(=O)c2ccccc2C2=C1NNC(C1CC1)(C1CC1)O2 [Compound 13],4.07,4.21,excellent cytotoxic action,increased significantly,–,substantially reduced,–,–,–,–,–,significant antimigration effect
COc1ccc(/C=N\N=C(C2CC2)C2CC2)cc1 [Compound 3a],< 4.00,4.32,–,–,–,–,–,–,–,–,–,–
Cc1nc2ccccc2c(=O)n1NC(=S)N=C(C1CC1)C1CC1 [Compound 20],4.21,4.31,excellent cytotoxic action,increased significantly,–,substantially reduced,–,–,–,–,–,significant antimigration effect
O=C1Nc2ccccc2C12NN=C(c1ccccc1)N2N=C(C1CC1)C1CC1 (centres unmarked) [Compound 7b],4.00,< 4.00,–,–,–,–,–,–,–,–,–,–
"O=C1Nc2ccccc2/C1=N/N=C(C1CC1)C1CC1 [Compound 4, 3-(dicyclopropylmethylene)hydrazone indolin-2-one]",4.00,4.27,excellent cytotoxic action,increased significantly,–,substantially reduced,–,–,–,–,–,–
O=C1CCC(=O)N1N=C(C1CC1)C1CC1 [Compound 16],4.12,4.63,excellent cytotoxic action,increased significantly,80,substantially reduced,significant (P < 0.001) decrease,significant increase; also recorded: increase in cytochrome C greater than sorafenib,1.2,4.5,–,significant antimigration effect
NC1=NNC(c2ccccc2O)N1/N=C\c1ccccc1O (centres unmarked) [Compound 8a],4.00,4.21,excellent cytotoxic action,increased significantly,–,substantially reduced,–,–,–,–,–,–
"Cc1nc2ccccc2c(=O)n1N=C(C1CC1)C1CC1 [Compound 11, 3-((dicyclopropylmethylene)amino)-2-methylquinazolin-4(3H)-one]",< 4.00,< 4.00,–,–,–,–,–,–,–,–,–,–
Oc1ccccc1/C=N\N1C(c2ccccc2)=NNC1c1ccccc1O (centres unmarked) [Compound 8b],4.12,< 4.00,–,–,–,–,–,–,–,–,–,–
O=[N+]([O-])c1ccc(/C=N\N=C(C2CC2)C2CC2)cc1 [Compound 3b],4.04,< 4.00,–,–,–,–,–,–,–,–,–,–
Oc1ccccc1/C=N/N=C/c1ccccc1O [Compound 5],< 4.00,4.12,–,–,–,–,–,–,–,–,–,–
NC1=NNC2(C(=O)Nc3ccccc32)N1N=C(C1CC1)C1CC1 (centres unmarked) [Compound 7a],< 4.00,< 4.00,–,–,–,–,–,–,–,–,–,–
